From US20240100164A1, “REPEATED PHOTODYNAMIC THERAPY USING PHOTOSENSITIZING AGENT” (Incando Therapeutics Pte. Ltd., priority 2022, published 2024)
Values joined by “and” are separate entries in the source; they are usually repeats but may differ in a detail not shown here. Equal entries are not always repeated.

Key:
[1] = test system: glioma cells; test: In vitro 3D hydrogel culture, PDT induced cell death of glioma cells; format: cell-based; conditions: glioma cells in 3D-hydrogel incubated with 5-ALA, illuminated with LED at 630 nm
Excerpt: An in vitro model of light penetration into tissue was established to determine the quantitative relationship between light penetrance PDT instigated cell death. The primary parameters for light input are illumination intensity and duration of illumination. The primary parameter for PDT instigated cell death is depth (or distance from the light source to the target treatment tissue), which directly attenuates light penetration into tissue.
To evaluate PDT for treatment of gliomas and brain cancers glioma cells were propagated in a hydrogel medium in a three-dimensional (3D) culture to mimic the cellular and optical environment of the brain. A commercial 3D culture system was used to set up the culture in a linear configuration such that a point source of light could be applied to one end of a closed culture in a cylinder form. The total cellular growth volume was 1 mm×1 mm×15 mm. A 630 nm LED light source that mimics the spectral characteristics and intensity of the any of the implantable devices disclosed herein was used to illuminate embedded glioma cells and to establish the effective PDT “kill radius.”
FIGS. 9A-9B show PDT induced cell death of glioma cells using a LED light source such as any of those disclosed herein. Glioma cells were embedded in a 3D-hydrogel, incubated with study drug 5-ALA, and illuminated with a light from a LED at 630 nm as shown in FIG. 9A. […]

[2] = test system: C6 glioma; test: Orthotopic C6 glioma xenograft, 5-ALA uptake and conversion to PPIX in tumor; format: in vivo, Sprague Dawley rat; conditions: C6 tumor in rat striatum, histology
Experimental: C6 rat glioma cells were maintained in F12K medium (F-12K Nutrient Mixture, 1X, Gibco) supplemented with […] (Biowest), […] (Gibco), and 1% each of P/S and L/G antibiotics (Biowest) at 37° C. in a humidified incubator containing 5% CO2. Subconfluent, low passage C6 glioma cells were resuspended to single cell suspension in sterile PBS (1X, Hyclone) within two hours of xenotransplantation.
Approximately 2×10^5 cells were stereotactically injected into the striatum of rats (230-270 g, InVivos Pte Ltd) under general anaesthesia. Using a hand-held drill, a burr hole of 1 mm was drilled and cells were injected unilaterally at 3 mm lateral to Bregma and at a depth of 4 mm. Injections were conducted using borosilicate capillary glass micropipettes (A-M Systems) pulled to a tip diameter of ˜[…]. Animals were allowed to recover with daily antibiotics and analgesics for up to a week and monitored post operatively for adverse events and signs of distress in compliance with relevant animal treatment guidelines.
FIG. 10 illustrates an orthotopic xenograft model. Rat C6 glioma cells are implanted unilaterally into the striatum of Sprague Dawley rats. Tumor engraftment and growth was rapid and morphology is consistent with human high grade gliomas.

[3] = test system: C6 glioma; test: Single application of PDT in orthotopic C6 glioma model (Ki67, TUNEL histology); format: in vivo, Sprague Dawley rat
Experimental: (§1) The implants were secured in place by suturing the overlying skin to close the surgical site. Device operation was tested briefly before closure. Six hours prior to each PDT treatment, rats were injected with 100 mg/kg 5-ALA (Synchem UG & Co. KG) prepared in sterile PBS (1X, Hyclone) via tail vein or with a vehicle control. PDT treatment was conducted under 1.5-2.5% […] isoflurane/O2 general anesthesia. Wireless powering coils such as those disclosed herein were secured to each animal's head, and each PDT treatment delivered 2.5 mW/cm2 of light over 3,600 seconds for a total fluence of 9 J/cm^2 per treatment. Any of the other treatment parameters disclosed herein may be used.
Test animals were sacrificed after 24 hours, and their brains were sectioned for histological examination. The proliferation marker Ki67 and the TUNEL assay (terminal deoxynucleotidyl transferase dUTP nick end labeling) indicative of apoptosis was used to quantify the PDT effect.
Test animals were sacrificed after 24 hours, and their brains were sectioned for histological examination. The proliferation marker Ki67 and the TUNEL assay indicative of apoptosis was used to quantify the PDT effect.

[4] = test system: C6 glioma; test: Single vs. repeated PDT (rePDT) in orthotopic C6 glioma model, survival and tumor size; format: in vivo, Sprague Dawley rat
Excerpt: Animals were monitored daily for weight change and behavioral abnormalities ahead of xenograft induced mortality. Ethical termination via CO2 overdose was triggered in the following events: individual weight loss of greater than 20% in one day, extended cessation of motor behavior and loss of grooming; paralysis and lack of movement/lying on a side. After termination or death, individual rat brains were dissected and prepared for histological analysis by freezing in OCT compound (Tissue-Tek). Survival analysis was performed via the method of Kaplan-Meier.
as §1
Further experimentation was conducted to determine if repeated application of PDT treatment would have a cumulative effect on tumor growth and disease progression. […] If a single PDT treatment was at least 50% effective in destroying the tumor population, an inter-treatment interval of 2 days would maintain or diminish the tumor graft to at, or near starting levels. With this rationale in mind, PDT treatment was applied according to the schema shown in FIG. 12A with four treatments repeated every two days starting at day 4 after xenograft surgery.
On the day of treatment, animals received 5-ALA via tail vein injection and allowed to recover for 6 hours to allow uptake and expression of PPIX. PDT treatment was conducted under light general anaesthesia via halothane to reduce movement during PDT. […] This procedure was repeated at 2-day intervals for a total of four treatments.
FIG. 13 also illustrates survival curves for single vs repeat PDT treated animals. Sprague Dawley rats were implanted with c6 glioma cells and implanted with a wirelessly powered light source above the injection site as described. On treatment days (days 4, 6, 8, 10), animals were given the study drug 5-ALA as described and received PDT treatment. […] In contrast, 7 of 8 cohort 2 animals, which received PDT treatment on days 4, 6, 8, and 10, survived to day 70 at which point the experiment was stopped. Therefore, rePDT kills more of the tumor compared with a single treatment of PDT and increases survival time of the rodents.

[5] = in vivo; cited from earlier work

## Cl.NCC(=O)CCC(=O)O [5-ALA, 5-amino-4-oxo-pentanoic acid hydrochloride]
[1]
  effective "kill zone" (distance from the light source): 6-8 mm
[2]
  PPIX signal in the tumor (conversion of 5-ALA to PPIX): Strong PPIX signal
  tumor uptake of photosensitizer: takes up the photosensitizer drug 5-ALA
[3]; 100 mg/kg 5-ALA tail vein 6 h before wirelessly powered light, 9 J/cm^2, sacrificed after 24 hours
  PDT effect (Ki67 and TUNEL): able to induce PDT
[3]; either component singly (5-ALA without light)
  PDT effect (Ki67 and TUNEL): did not show the same effect
[4]; 5-ALA tail vein 6 hours before PDT under general anaesthesia, four treatments at 2-day intervals
  adverse effects after PDT treatment: no adverse effects
[4]; Cohort 1, PDT treatment only on day 4 (n=10)
  mean survival: ~22 days
[4]; control animals (control treatment = single PDT session)
  time of mortality: 22 to 24 days
[4]; control animals (control treatment = single PDT session), necropsy
  tumor size: 125-200 mm^3
[4]; control animals (n=10), Kaplan-Meier
  median survival: 21 days
[4]; rePDT
  animals living at the end of the experiment: 89%
[4]; rePDT animals, histology
  tumor cells by H&E staining: trace amounts of tumor cells
[4]; rePDT animals, histology, vs contralateral controls
  Ki67 level: low levels of Ki67
[4]; rePDT vs control animals, gross estimates
  reduction in the tumor volume: > 99.5%
[4]; rePDT, PDT on days 4, 6, 8, 10, hydrochloride
  animals living at the end of the experiment (day 70): 8 out of 9 and 7 of 8
[4]; repeated PDT (rePDT), four treatments every two days from day 4
  survival (day of termination of experiment): ≥ 70 days

## C=CC1=C(C)c2cc3[nH]c(cc4nc(cc5[nH]c(cc1n2)c(C)c5CCC(=O)O)C(CCC(=O)O)=C4C)c(C)c3C=C [PPIX, Protoporphyrin IX]
[5]
  systemic clearance time of 5-ALA-induced PPIX: ≤ 24 h
